# Experimental data from ChEMBL document CHEMBL6078713, “Synthesis and mechanistic studies of 4-aminoquinoline-Isatin molecular hybrids and Schiff's bases as promising antimicrobial agents” (Eur J Med Chem, 2025).
# Active and inactive are the calls of the source. No cut-off for these calls is given here.
# Legend:
# [1] = system: Escherichia coli; assay: Synergistic antibacterial activity against Escherichia coli MTCC 443 assessed as inhibition of bacterial growth incubated overnight in presence of ciprofloxacin by serial dilution based spectrophotometer; type: functional
# [2] = system: Pseudomonas aeruginosa; assay: Bactericidal activity against Pseudomonas aeruginosa MTCC 2453 assessed as inhibition of bacterial growth incubated overnight; type: functional
# [3] = system: Staphylococcus aureus; assay: Antibacterial activity against Staphylococcus aureus MTCC 902 assessed as diameter of zone of inhibition at MIC incubated overnight by disk diffusion method; type: functional
# [4] = system: Enterococcus faecalis; assay: Antibacterial activity against Enterococcus faecalis MTCC 439 assessed as diameter of zone of inhibition at 0.5 times MIC incubated overnight by disk diffusion method; type: functional
# [5] = system: Bacillus subtilis; assay: Synergistic antibacterial activity against Bacillus subtilis MTCC 736 assessed as inhibition of bacterial growth incubated overnight in presence of ciprofloxacin by serial dilution based spectrophotometer; type: functional
# [6] = system: Pseudomonas aeruginosa; assay: Antibacterial activity against Pseudomonas aeruginosa MTCC 2453 assessed as diameter of zone of inhibition at 2 times MIC incubated overnight by disk diffusion method; type: functional
# [7] = system: Escherichia coli; assay: Bacteriostatic activity against Escherichia coli MTCC 443 assessed as reduction in log phase of bacterial growth at 0.5 to 1 times MIC measured upto 24 hrs by absorbance based assay; type: functional, organism-based
# [8] = system: Bacillus subtilis; assay: Antibacterial activity against Bacillus subtilis MTCC 736 assessed as diameter of zone of inhibition at MIC incubated overnight by disk diffusion method; type: functional
# [9] = system: Pseudomonas aeruginosa; assay: Antibacterial activity against Pseudomonas aeruginosa MTCC 2453 assessed as diameter of zone of inhibition at 0.5 times MIC incubated overnight by disk diffusion method; type: functional
# [10] = system: Staphylococcus aureus; assay: Bacteriostatic activity against Staphylococcus aureus MTCC 902 assessed as lag phase of bacterial growth at 1 times MIC measured upto 24 hrs by absorbance based assay; type: functional, organism-based
# [11] = system: Salmonella typhi; assay: Antibacterial activity against Salmonella typhi assessed as diameter of zone of inhibition at 2 times MIC incubated overnight by disk diffusion method; type: functional, Salmonella enterica subsp. enterica serovar Typhi
# [12] = system: Pseudomonas aeruginosa; assay: Synergistic antibacterial activity against Pseudomonas aeruginosa MTCC 2453 assessed as inhibition of bacterial growth incubated overnight in presence of ciprofloxacin by serial dilution based spectrophotometer; type: functional
# [13] = system: Staphylococcus aureus; assay: Bacteriostatic activity against Staphylococcus aureus MTCC 902 assessed as lag phase of bacterial growth at 0.5 times MIC measured upto 24 hrs by absorbance based assay; type: functional, organism-based
# [14] = system: Escherichia coli; assay: Antibacterial activity against Escherichia coli MTCC 443 assessed as diameter of zone of inhibition at 0.5 times MIC incubated overnight by disk diffusion method; type: functional
# [15] = system: Bacillus subtilis; assay: Antibacterial activity against Bacillus subtilis MTCC 736 assessed as diameter of zone of inhibition at 2 times MIC incubated overnight by disk diffusion method; type: functional
# [16] = system: Escherichia coli; assay: Synergistic antibacterial activity against Escherichia coli MTCC 443 assessed as fractional inhibitory concentration index incubated overnight in presence of ciprofloxacin by microdilution checkerboard assay; type: functional
# [17] = system: Staphylococcus aureus; assay: Antibacterial activity against Staphylococcus aureus MTCC 902 assessed as inhibition of bacterial growth incubated overnight by serial dilution based spectrophotometer; type: functional
# [18] = system: Enterococcus faecalis; assay: Antibacterial activity against Enterococcus faecalis MTCC 439 assessed as diameter of zone of inhibition at MIC incubated overnight by disk diffusion method; type: functional
# [19] = system: Enterococcus faecalis; assay: Antibacterial activity against Enterococcus faecalis MTCC 439 assessed as diameter of zone of inhibition at 2 times MIC incubated overnight by disk diffusion method; type: functional
# [20] = system: Bacillus subtilis; assay: Bactericidal activity against Bacillus subtilis MTCC 736 assessed as inhibition of bacterial growth incubated overnight; type: functional
# [21] = system: Staphylococcus aureus; assay: Antibacterial activity against Staphylococcus aureus MTCC 902 assessed as diameter of zone of inhibition at 500 ug/ml by agar disk diffusion method; type: functional; conditions: read-out: DIZ
# [22] = system: Pseudomonas aeruginosa; assay: Antibacterial activity against Pseudomonas aeruginosa MTCC 2453 assessed as diameter of zone of inhibition at 500 ug/ml by agar disk diffusion method; type: functional; conditions: read-out: DIZ
# [23] = system: Escherichia coli; assay: Antibacterial activity against Escherichia coli MTCC 443 assessed as diameter of zone of inhibition at MIC incubated overnight by disk diffusion method; type: functional
# [24] = system: Bacillus subtilis; assay: Ratio of MBC for antibacterial activity against Bacillus subtilis MTCC 736 to MIC for bactericidal activity against Bacillus subtilis MTCC 736; type: functional
# [25] = system: Escherichia coli; assay: Bacteriostatic activity against Escherichia coli MTCC 443 assessed as reduction in bacterial growth at 2 times MIC measured upto 10 hrs by absorbance based assay; type: functional, organism-based
# [26] = system: Staphylococcus aureus; assay: Antibacterial activity against Staphylococcus aureus MTCC 902 assessed as diameter of zone of inhibition at 0.5 times MIC incubated overnight by disk diffusion method; type: functional
# [27] = system: Escherichia coli; assay: Antibacterial activity against Escherichia coli MTCC 443 assessed as diameter of zone of inhibition at 2 times MIC incubated overnight by disk diffusion method; type: functional
# [28] = system: Bacillus subtilis; assay: Antibacterial activity against Bacillus subtilis MTCC 736 assessed as diameter of zone of inhibition at 500 ug/ml by agar disk diffusion method; type: functional; conditions: read-out: DIZ
# [29] = system: Escherichia coli; assay: Antibacterial activity against Escherichia coli MTCC 443 assessed as diameter of zone of inhibition at 500 ug/ml by agar disk diffusion method; type: functional; conditions: read-out: DIZ
# [30] = system: Salmonella typhi; assay: Antibacterial activity against Salmonella typhi assessed as inhibition of bacterial growth incubated overnight by serial dilution based spectrophotometer; type: functional, Salmonella enterica subsp. enterica serovar Typhi; conditions: Salmonella enterica
# [31] = system: Salmonella typhi; assay: Antibacterial activity against Salmonella typhi assessed as diameter of zone of inhibition at MIC incubated overnight by disk diffusion method; type: functional, Salmonella enterica subsp. enterica serovar Typhi
# [32] = system: Staphylococcus aureus; assay: Bacteriostatic activity against Staphylococcus aureus MTCC 902 assessed as reduction in bacterial growth at 2 times MIC measured upto 10 hrs by absorbance based assay; type: functional, organism-based
# [33] = system: Enterococcus faecalis; assay: Antibacterial activity against Enterococcus faecalis MTCC 439 assessed as inhibition of bacterial growth incubated overnight by serial dilution based spectrophotometer; type: functional
# [34] = system: Pseudomonas aeruginosa; assay: Antibacterial activity against Pseudomonas aeruginosa MTCC 2453 assessed as diameter of zone of inhibition at MIC incubated overnight by disk diffusion method; type: functional
# [35] = system: Escherichia coli; assay: Bactericidal activity against Escherichia coli MTCC 443 assessed as inhibition of bacterial growth incubated overnight; type: functional
# [36] = system: Staphylococcus aureus; assay: Antibacterial activity against Staphylococcus aureus MTCC 902 assessed as diameter of zone of inhibition at 2 times MIC incubated overnight by disk diffusion method; type: functional
# [37] = system: Bacillus subtilis; assay: Synergistic antibacterial activity against Bacillus subtilis MTCC 736 assessed as fractional inhibitory concentration index incubated overnight in presence of ciprofloxacin by microdilution checkerboard assay; type: functional
# [38] = system: Pseudomonas aeruginosa; assay: Ratio of MBC for antibacterial activity against Pseudomonas aeruginosa MTCC 2453 to MIC for bactericidal activity against Pseudomonas aeruginosa MTCC 2453; type: functional
# [39] = system: Pseudomonas aeruginosa; assay: Antibacterial activity against Pseudomonas aeruginosa MTCC 2453 assessed as inhibition of bacterial growth incubated overnight by serial dilution based spectrophotometer; type: functional
# [40] = system: Pseudomonas aeruginosa; assay: Synergistic antibacterial activity against Pseudomonas aeruginosa MTCC 2453 assessed as fractional inhibitory concentration index incubated overnight in presence of ciprofloxacin by microdilution checkerboard assay; type: functional
# [41] = system: Bacillus subtilis; assay: Antibacterial activity against Bacillus subtilis MTCC 736 assessed as diameter of zone of inhibition at 0.5 times MIC incubated overnight by disk diffusion method; type: functional
# [42] = system: Escherichia coli; assay: Antibacterial activity against Escherichia coli MTCC 443 assessed as inhibition of bacterial growth incubated overnight by serial dilution based spectrophotometer; type: functional
# [43] = system: Bacillus subtilis; assay: Antibacterial activity against Bacillus subtilis MTCC 736 assessed as inhibition of bacterial growth incubated overnight by serial dilution based spectrophotometer; type: functional
smiles,measurement,setting,value
O=C1Nc2cc(Cl)ccc2/C1=N/CCNc1ccnc2cc(Cl)ccc12,MIC,[1],16 µg/mL
same,MBC,[2],256 µg/mL
same,diameter of the inhibition zone (DIZ),[3],8 mm
same,diameter of the inhibition zone (DIZ),[4],8 mm
same,MIC,[5],64 µg/mL
same,diameter of the inhibition zone (DIZ),[6],9 mm
same,Activity,[7],Active
same,diameter of the inhibition zone (DIZ),[8],11 mm
same,diameter of the inhibition zone (DIZ),[9],8 mm
same,Activity,[10],Active
same,diameter of the inhibition zone (DIZ),[11],7 mm
same,MIC,[12],32 µg/mL
same,Activity,[13],inactive
same,diameter of the inhibition zone (DIZ),[14],9 mm
same,diameter of the inhibition zone (DIZ),[15],10 mm
same,fractional inhibitory concentration index (FICI),[16],0.125
same,MIC,[17],> 512 µg/mL
same,diameter of the inhibition zone (DIZ),[18],8 mm
same,diameter of the inhibition zone (DIZ),[19],8 mm
same,MBC,[20],256 µg/mL
same,zone of inhibition at 500 µg/mL,[21],8 mm
same,zone of inhibition at 500 µg/mL,[22],11 mm
same,diameter of the inhibition zone (DIZ),[23],9 mm
same,Ratio,[24],1
same,Activity,[25],Active
same,diameter of the inhibition zone (DIZ),[26],8 mm
same,diameter of the inhibition zone (DIZ),[27],11 mm
same,zone of inhibition at 500 µg/mL,[28],11 mm
same,zone of inhibition at 500 µg/mL,[29],12 mm
same,MIC,[30],> 512 µg/mL
same,diameter of the inhibition zone (DIZ),[31],7 mm
same,Activity,[32],Active
same,MIC,[33],> 512 µg/mL
same,diameter of the inhibition zone (DIZ),[34],9 mm
same,MBC,[35],> 512 µg/mL
same,diameter of the inhibition zone (DIZ),[36],8 mm
same,fractional inhibitory concentration index (FICI),[37],0.75
same,Ratio,[38],2
same,MIC,[39],128 µg/mL
same,fractional inhibitory concentration index (FICI),[40],1.25
same,diameter of the inhibition zone (DIZ),[41],8 mm
same,MIC,[42],256 µg/mL
same,MIC,[43],256 µg/mL
